Experimental data taken from US9284303B2, “Benzimidazole cannabinoid agonists bearing a substituted heterocyclic group” (priority 2006, dated 2016).
Structures can show the parent of a compound that is named as a salt. Where two headings read alike, the source gives them in different places.

Legend:
[1] = target: T1, human CB2 (hCB2) receptor (Homo sapiens, UniProt P34972); test: Inhibition of forskolin-activated cAMP production upon activation of hCB2 (HTRF), CHO-K1 cells; assay type: cell-based; details: for ratio CB2 agonism over CB1 agonism: Table C-1, selectivity hCB2 over hCB1; for EC50: forskolin-activated cAMP, pEC50=-log(EC50); for ratio CB2 over CB1 agonism: Table C-3, comparison of art compounds A to E with compounds of the invention
T1 construct: expressed in transfected cells; host or cells: CHO-K1
T1 sequence (P34972 whole entry): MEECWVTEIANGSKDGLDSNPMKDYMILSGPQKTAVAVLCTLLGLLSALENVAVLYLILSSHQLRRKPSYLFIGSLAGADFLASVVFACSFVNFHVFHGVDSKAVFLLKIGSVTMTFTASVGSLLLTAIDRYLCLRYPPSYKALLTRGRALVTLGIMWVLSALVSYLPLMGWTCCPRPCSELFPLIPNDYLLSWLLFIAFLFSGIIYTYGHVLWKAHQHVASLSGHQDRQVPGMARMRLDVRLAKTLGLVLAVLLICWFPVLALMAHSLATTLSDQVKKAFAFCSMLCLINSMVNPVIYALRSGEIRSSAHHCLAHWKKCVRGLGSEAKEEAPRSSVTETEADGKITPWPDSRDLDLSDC
Description: (§1) Functional activity of the test compounds was assessed by measuring their potency to inhibit forskolin-activated cAMP production upon activation of the human CB1 (hCB1) or human CB2 (hCB2) receptor through homogenous time resolved fluorescence (HTRF) assays.
(§2) Before the experiments, medium was removed, cells were washed with PBS/EDTA (140 mM NaCl, 1 mM Naz-EDTA, 8 mM Na2HPO4.2H2O, 8.5 mM KH2PO4, 2.7 mM KCl, 21 mM glucose), resuspended in stimulation buffer (HBSS 1x, IBMX 1 mM, Hepes 5 mM, MgCl2 10 mM, BSA 0.1%, pH 7.4). Cells were diluted to a concentration of 8.10^5 cell/ml for hCB1 experiments and 10^6 cells/ml for hCB2 experiments. Assays were performed using the cAMP Dynamic HTRF kit (CIS bio international, France) according to the recommendations of the manufacturer.
Then, 20 μl of the diluted hCB2-CHO-K1 cells was added (20,000 cells/well). After 30 minutes incubation in dark at room temperature, 10 μl cAMP-XL665 and 10 μl anti-cAMP cryptate (both at a final dilution of 1/100) was added to the cells.

[2] = target: T2, human CB1 (hCB1) receptor (Homo sapiens, UniProt P21554); test: Inhibition of forskolin-activated cAMP production upon activation of hCB1 (HTRF), CHO-K1 cells; assay type: cell-based
T2 construct: expressed in transfected cells; host or cells: CHO-K1
T2 sequence (P21554 whole entry): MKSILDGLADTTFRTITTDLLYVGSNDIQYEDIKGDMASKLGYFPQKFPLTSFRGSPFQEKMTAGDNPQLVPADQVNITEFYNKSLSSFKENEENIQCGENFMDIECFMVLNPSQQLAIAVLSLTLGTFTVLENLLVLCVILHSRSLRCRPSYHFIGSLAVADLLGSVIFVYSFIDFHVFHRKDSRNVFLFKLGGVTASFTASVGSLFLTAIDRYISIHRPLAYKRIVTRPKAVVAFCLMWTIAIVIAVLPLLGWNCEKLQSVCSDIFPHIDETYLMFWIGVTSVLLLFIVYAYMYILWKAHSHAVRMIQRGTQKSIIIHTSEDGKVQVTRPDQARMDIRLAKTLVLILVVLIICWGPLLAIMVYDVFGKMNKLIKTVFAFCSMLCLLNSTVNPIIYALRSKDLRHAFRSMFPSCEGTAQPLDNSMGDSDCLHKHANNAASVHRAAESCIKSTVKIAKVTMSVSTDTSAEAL
Description: as §1
as §2, with “CHO-K1 cells stably transfected with either hCB1 or hCB2 were grown up to 80-90% confluence in T175 Falcon flasks in DMEM/NUT MIX F-12 culture medium complemented with 2% Solution A (5.10^6 IU/l penicillin G, 5 g/l streptomycin sulphate, 5.5 g/l pyruvate, 14.6 g/l L-glutamine, 1M NaOH) and 10% foetal calf serum. Before” for “Before”
For CB1, each well of a 96 flat bottom black polystyrene assay plate (Costar) was filled with 25 μl stimulation buffer containing 6 μM forskolin and either test compound (in 2% DMSO), 2% DMSO or 2 μM CP55490 (in 2% DMSO). Then, 25 μl of the diluted cells was added (20,000 cells/well). After 30 minutes incubation in dark at room temperature, 25 μl cAMP-XL665 and 25 μl anti-cAMP cryptate (both at a final dilution of 1/80) was added to the cells.
After equilibration of the reaction mixtures for 1 to 24 hours in dark at room temperature, fluorescence was measured at 665 nm and 620 nm using a Discovery microplate fluorescence counter (Perkin Elmer), and the signal ratio of 665 nm/620 nm was calculated. The signal ratios of the test compounds were expressed relative to the signal ratios of the DMSO control (maximal signal ratio, no inhibition of cAMP) and CP55490 or WIN55212-2 for hCB1 and hCB2, respectively (minimal signal ratio, maximal inhibition of cAMP). From the dose response curves generated for each test compound, the dose at which 50% of the maximal inhibition of cAMP level is observed (EC50, expressed in the Tables as pEC50=−log(EC50) values) and the level of inhibition reached with 10 μM of the test compound compared to CP55490 (for hCB1) or WIN55212-2 (for hCB2) was calculated.

[3] = hCB2-CHO-K1 cells, read-out: CB2 pEC50 (converted)
[4] = CB1 pEC50, hCB1-CHO-K1 cells, forskolin-activated cAMP, pEC50=-log(EC50)

| SMILES | melting point [°C] | ratio CB2 agonism over CB1 agonism [1] | EC50 [1, 3] [nM] | EC50 [2, 4] [nM] | also measured |
| --- | --- | --- | --- | --- | --- |
| CC(C)(C)c1nc2cc(S(=O)(=O)c3ccnc(F)c3)ccc2n1CCCC(F)(F)F | 138.9 | – | – | – | – |
| CC(=O)N1CCC(Cn2c(C(C)(C)C)nc3cc(S(=O)(=O)c4ccnc(F)c4)ccc32)CC1 | 193.9 | – | – | – | – |
| CC(C)(C)c1nc2cc(S(=O)(=O)c3ccc(C#N)s3)ccc2n1CC1CCOCC1 | 156 | – | – | – | – |
| CC(C)(C)c1nc2cc(S(=O)(=O)c3ccc(S(N)(=O)=O)s3)ccc2n1CC1CCOCC1 (as salt: HCl) [Co. No. 47] | 255 to 260 | – | – | – | – |
| CC(C)(C)c1nc2cc(S(=O)(=O)c3ncc(C#N)s3)ccc2n1CCCC(F)(F)F | 122 | – | – | – | – |
| CC(C)(C)c1nc2cc(S(=O)(=O)c3ccc(S(N)(=O)=O)s3)ccc2n1CC1CCOCC1 | 259 | – | – | – | – |
| CC(C)(C)c1nc2cc(S(=O)(=O)c3ccnc(F)c3)ccc2n1CC1CCC1 (as salt: HCl) (hydrate or solvate) [Co. No. 136] | 184.3 | – | – | – | – |
| CC(C)(C)c1nc2cc(S(=O)(=O)c3ccnc(O)c3)ccc2n1CCCC(F)(F)F | 277.5 | – | – | – | – |
| CC(C)(C)c1nc2cc(S(=O)(=O)c3ccc(C(=O)N4CCCC4)o3)ccc2n1CC1CCOCC1 (as salt: HCl) [Co. No. 74] | 108.5 | – | – | – | – |
| CC(C)(C)c1nc2cc(S(=O)(=O)c3cc(S(C)(=O)=O)cnc3O)ccc2n1CC1CCOCC1 [Co. No. 77] | – | 1303 | 1.95 | 2570 | – |
| COCCCn1cc(S(=O)(=O)c2ccc3c(c2)nc(C(C)(C)C)n3CC2CCOCC2)cn1 [Co. No. 161] | – | 2951 | 1.82 | 5250 | – |
| CC(O)c1ccc(S(=O)(=O)c2ccc3c(c2)nc(C(C)(C)C)n3CC2CCOCC2)s1 (centres unmarked) | 192 | – | – | – | – |
| CC(C)(C)c1nc2cc(S(=O)(=O)c3ccnc(C#N)c3)ccc2n1CC1CCOCC1 (as salt: methanesulfonate) [Co. No. 93] | 215.7 | – | – | – | – |
| COCCCc1cc(S(=O)(=O)c2ccc3c(c2)nc(C(C)(C)C)n3CC2CCOCC2)cc[n+]1[O-] [Co. No. 155] | – | – | – | – | EC50 ([1]; CB2 pEC50, hCB2-CHO-K1 cells): 2.51 nM; EC50 [2]: > 10000 nM |
| CO[C@H]1CC[C@H](Cn2c(C(C)(C)C)nc3cc(S(=O)(=O)c4ccnc(F)c4)ccc32)CC1 [Co. No. 160] | – | >2344 | 4.27 | > 10000 | – |
| CC(C)(C)c1nc2cc(S(=O)(=O)c3ccc(OCC(F)(F)F)nc3)ccc2n1CC1CCOCC1 [Co. No. 108] | – | >3890 | 2.57 | > 10000 | – |
| COc1ccc(S(=O)(=O)c2ccc3c(c2)nc(C(C)(C)C)n3CC2CCOCC2)cn1 [Co. No. 54] | – | – | 0.933 | 123 | ratio CB2 agonism over CB1 agonism ([1]; listed as 54): 133 |
| CC(C)(C)c1nc2cc(S(=O)(=O)c3ccc(CN)nc3)ccc2n1CC1CCOCC1 [Co. No. 116] | – | 966 | 5.89 | 5750 | – |
| CCOc1cc(S(=O)(=O)c2ccc3c(c2)nc(C(C)(C)C)n3CC2CCOCC2)ccn1 [Co. No. 9] | – | 4266 | 0.331 | 1410 | ratio CB2 over CB1 agonism [1]: 4266 |
| CCCCN(C)c1cc(S(=O)(=O)c2ccc3c(c2)nc(C(C)(C)C)n3CC2CCOCC2)ccn1 [Co. No. 138] | – | 473 | 1.74 | 832 | – |

| SMILES | melting point [°C] | ratio CB2 agonism over CB1 agonism [1] | EC50 [1, 3] [nM] | EC50 [2, 4] [nM] | also measured |
| --- | --- | --- | --- | --- | --- |
| CCOc1cc(S(=O)(=O)c2ccc3c(c2)nc(C(C)(C)C)n3CCCC(F)(F)F)ccn1 | 137.7 | – | – | – | – |
| CC(C)(C)c1nc2cc(S(=O)(=O)c3ccnc(OCCCN)c3)ccc2n1CC1CCOCC1 [Co. No. 131] | – | >631 | 15.8 | > 10000 | – |
| CC(C)(C)c1nc2cc(S(=O)(=O)c3ncc(C(F)(F)F)cc3Cl)ccc2n1CC1CCOCC1 [Co. No. 61] | – | 135 | 1.12 | 151 | – |
| COc1c[n+]([O-])ccc1S(=O)(=O)c1ccc2c(c1)nc(C(C)(C)C)n2CC1CCOCC1 [Co. No. 115] | – | – | 3.72 | 3630 | – |
| CC(C)(C)c1nc2cc(S(=O)(=O)c3ccnc(F)c3)ccc2n1CC1CCC1 [Co. No. 136] | – | >22734 | 0.437 | > 10000 | – |
| CC(C)(C)c1nc2cc(S(=O)(=O)c3ccnc(F)c3)ccc2n1C[C@H]1CC[C@@](C)(O)CC1 [Co. No. 153] | – | >11749 | 0.851 | > 10000 | – |
| CC(C)(C)c1nc2cc(S(=O)(=O)c3ccnc(/C=C/Cl)c3)ccc2n1CC1CCOCC1 [Co. No. 125] | – | >3981 | 2.51 | > 10000 | – |
| CC(C)(C)c1nc2cc(S(=O)(=O)c3ccc(S(C)(=O)=O)s3)ccc2n1CC1CCOCC1 (as salt: HCl) [Co. No. 58] | 224 | – | – | – | – |
| CC(=O)c1ccc([S+]([O-])c2ccc3c(c2)nc(C(C)(C)C)n3CC2CCOCC2)nc1 (centres unmarked) [Co. No. 32] | – | 2951 | 2.57 | 7590 | – |
| CC(C)(C)c1nc2cc([S+]([O-])c3cc[n+]([O-])cc3C(F)(F)F)ccc2n1CC1CCOCC1 (centres unmarked) [Co. No. 95] | – | – | 5.75 | > 10000 | – |
| CCCC(C)Cn1c(C(C)(C)C)nc2cc(S(=O)(=O)c3ccnc(F)c3)ccc21 (centres unmarked) [Co. No. 148] | – | >38905 | 0.257 | > 10000 | – |
| CC(C)(C)c1nc2cc(S(=O)(=O)c3ncc(S(C)(=O)=O)cc3Br)ccc2n1CC1CCOCC1 [Co. No. 76] | – | >832 | 12 | > 10000 | – |
| CC(C)(C)c1nc2cc(S(=O)(=O)c3ccc(S(C)(=O)=O)s3)ccc2n1CC1CCOCC1 [Co. No. 58] | – | – | 0.832 | 1820 | ratio CB2 agonism over CB1 agonism ([1]; listed as 58): 2188 |
| CCC(C)(C)c1nc2cc(S(=O)(=O)c3ccc(OC)nn3)ccc2n1CC1CCC1 [Co. No. 26] | – | 676 | 0.794 | 537 | – |
| CC(C)(C)c1nc2cc(S(=O)(=O)c3ccnc(F)c3)ccc2n1CCC1OCCO1 [Co. No. 165] | – | >923 | 10.7 | > 10000 | – |
| COc1ncc(S(=O)(=O)c2ccc3c(c2)nc(C(C)(C)C)n3CC2CCOCC2)cn1 [Co. No. 111] | – | 372 | 1.15 | 427 | – |
| CC(C)(C)c1nc2cc(S(=O)(=O)c3ccnc(C#N)c3)ccc2n1CC1CCOCC1 [Co. No. 93] | – | – | – | > 10000 | EC50 ([1]; CB2 pEC50, hCB2-CHO-K1 cells): 1.48 nM; ratio CB2 agonism over CB1 agonism ([1]; listed as 93): >6761 |
| CC(C)(C)c1nc2cc(S(=O)(=O)c3ccc(C(=O)N4CCCC4)cn3)ccc2n1CC1CCCCC1 [Co. No. 38] | – | >3631 | 2.75 | > 10000 | – |
| CC(=O)N1CCC(Cn2c(C(C)(C)C)nc3cc(S(=O)(=O)c4cc[n+]([O-])cc4)ccc32)CC1 [Co. No. 143] | – | – | 17 | > 10000 | – |
| CC(C)(C)c1nc2cc(S(=O)(=O)c3ccnc(OC(F)F)c3)ccc2n1CC1CCOCC1 [Co. No. 14] | – | 4898 | 0.776 | 3800 | ratio CB2 over CB1 agonism [1]: 4898 |
